The source of these data is PubChem BioAssay AID1918953 (Molecular Pharmacology Branch, DTP, NCI, 2023).

The test system of this experiment is MDA-MB-231 complex spheroid viability. Briefly: Anticancer human tumor MDA-MB-231/ATCC cell line growth inhibition.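 For all read-outs here: drug exposure lasted 7 days starting on day 3 of spheroid growth.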 To be noted: for viability, T/C: stronger effect = lower value. The gist of the method:
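Multicellular complex spheroids of tumor cells with human endothelial cells (HUVEC) and mesenchymal stem cells; the LSD1 inhibitor iadademstat was combined with standard-of-care or investigational agents. Top concentration at or near clinical Cmax, half-log dilutions; final DMSO ≤0.25%.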

Where [1] appears, read: curve of first compound, second compound 0.1 µM.
Where [2] appears, read: curve of first compound, second compound 0.316 µM.
[3] abbreviates: curve of first compound, second compound 1 µM.
Where [4] appears, read: curve of first compound, second compound 3.16 µM.
Setting [5] is: curve of first compound, second compound 10 µM.
Setting [6] is: second compound 0.1 µM, first compound 0.0316 µM.
[7] abbreviates: second compound 0.1 µM, first compound 0.1 µM.
[8] abbreviates: second compound 0.1 µM, first compound 0.316 µM.
Setting [9] is: second compound 0.1 µM, first compound 1 µM.
[10] abbreviates: second compound 0.1 µM, first compound 3.16 µM.
Setting [11] is: second compound 0.1 µM, first compound 10 µM.
Setting [12] is: second compound 0.316 µM, first compound 0.0316 µM.
Setting [13] is: second compound 0.316 µM, first compound 0.1 µM.
[14] abbreviates: second compound 0.316 µM, first compound 0.316 µM.
Setting [15] is: second compound 0.316 µM, first compound 1 µM.
Setting [16] is: second compound 0.316 µM, first compound 3.16 µM.
[17] abbreviates: second compound 0.316 µM, first compound 10 µM.
Where [18] appears, read: second compound 1 µM, first compound 0.0316 µM.
Setting [19] is: second compound 1 µM, first compound 0.1 µM.
The mark [20] stands for this setting: second compound 1 µM, first compound 0.316 µM.
Setting [21] is: second compound 1 µM, first compound 1 µM.
The mark [22] stands for this setting: second compound 1 µM, first compound 3.16 µM.
The mark [23] stands for this setting: second compound 1 µM, first compound 10 µM.
Where [24] appears, read: second compound 3.16 µM, first compound 0.0316 µM.
[25] abbreviates: second compound 3.16 µM, first compound 0.1 µM.
[26] abbreviates: second compound 3.16 µM, first compound 0.316 µM.
[27] abbreviates: second compound 3.16 µM, first compound 1 µM.
[28] abbreviates: second compound 3.16 µM, first compound 3.16 µM.
[29] abbreviates: second compound 3.16 µM, first compound 10 µM.
[30] abbreviates: second compound 10 µM, first compound 0.0316 µM.
The mark [31] stands for this setting: second compound 10 µM, first compound 0.1 µM.
The mark [32] stands for this setting: second compound 10 µM, first compound 0.316 µM.
Setting [33] is: second compound 10 µM, first compound 1 µM.
The mark [34] stands for this setting: second compound 10 µM, first compound 3.16 µM.
The mark [35] stands for this setting: second compound 10 µM, first compound 10 µM.

pIC50: −log10 of the molar value. Several values for one entry are separate records, joined by “and”; a condition that tells them apart may be missing. Equal entries are not always repeated.

On to `O=C(c1cc(Cc2n[nH]c(=O)c3ccccc23)ccc1F)N1CCN(C(=O)C2CC2)CC1` + NC1CC1c1ccc(-c2cccc(O)c2)cc1, for which the pIC50 (usually the negative decadic logarithm of the IC50, by convention in mol/L) by setting is: under setting [1], 5.76; under setting [2], 6.28; under setting [3], 6.42; under setting [4], 6.46; under setting [5], greater than 7.50. Further, the viability, T/C – broadly, the result in the treated group divided by that in the control group, in per cent – under setting [6] is 71.6%; the viability, T/C under setting [7] was 64.2%; the viability, T/C under setting [8] was 67%; the viability, T/C under setting [9] was 56.1%; the viability, T/C under setting [10] is 42.7%; the viability, T/C under setting [11] is 27.1%. Also, the viability, T/C by setting is: under setting [12], 65.5%; under setting [13], 60.6%; under setting [14], 54.8%; under setting [15], 44.5%; under setting [16], 32.3%; under setting [17], 24.8%. Further, the viability, T/C under setting [18] is 59.6%; the viability, T/C under setting [19] was 56.9%; the viability, T/C under setting [20] was 50.7%; the viability, T/C under setting [21] was 44.3%; the viability, T/C under setting [22] is 32%; the viability, T/C under setting [23] was 21.1%. Moreover, the viability, T/C under setting [24] was 65.3%; the viability, T/C under setting [25] is 54.1%; the viability, T/C under setting [26] is 50.6%; the viability, T/C under setting [27] was 45.1%; the viability, T/C under setting [28] is 33%; the viability, T/C under setting [29] is 22.2%. For the same compound, the viability, T/C runs as follows: under setting [30], 45.4%; under setting [31], 38.2%; under setting [32], 36.4%; under setting [33], 37.2%; under setting [34], 23.3%; under setting [35], 19.9%.
In the case of `NC1CCC(NC2CC2c2ccccc2)CC1` (configuration not stated), the viability, T/C by setting is: (compound 0.1 µM) 102% [middle of 25 runs]; (compound 0.316 µM) 106% and 102%; (compound 1 µM) 99.7% [middle of 25 runs]; (compound 10 µM) 61% [middle of 23 runs]. In addition, for the setting “compound alone, run of 01/18/2022”, the pIC50 was less than 5.00.
Consider `CC(C)c1c(-c2ccccc2)nc2c(C#N)c[nH]n2c1=O` + NC1CC1c1ccc(-c2cccc(O)c2)cc1, for which the negative logarithm of the IC50 (pIC50) under setting [1] is less than 5.00; the pIC50 under setting [2] is less than 5.00; the pIC50 under setting [3] is less than 5.00; the negative logarithm of the IC50 (pIC50) under setting [4] was less than 5.00; the negative logarithm of the IC50 (pIC50) under setting [5] is greater than 7.50. In addition, the viability, T/C is 82.9% under setting [6]; 84.7% under setting [7]; 82% under setting [8]; 85.4% under setting [9]; 83% under setting [10]; 82.4% under setting [11]. In addition, the viability, T/C is, setting by setting: under setting [12], 71%; under setting [13], 69.8%; under setting [14], 70.4%; under setting [15], 63.1%; under setting [16], 76.2%; under setting [17], 62%. In addition, the viability, T/C was 69.4% under setting [18]; 69.5% under setting [19]; 70.7% under setting [20]; 63.6% under setting [21]; 58.3% under setting [22]; 52.9% under setting [23]. Also, the viability, T/C reads like this: under setting [24], 68.5%; under setting [25], 65.1%; under setting [26], 71%; under setting [27], 68%; under setting [28], 62.7%; under setting [29], 56.5%. Further, the viability, T/C is 44.3% under setting [30]; 42.9% under setting [31]; 50.8% under setting [32]; 51.5% under setting [33]; 44.2% under setting [34]; 45.2% under setting [35].
For `COc1cc(Nc2ncc3c(n2)-c2ccc(Cl)cc2C(c2c(F)cccc2OC)=NC3)ccc1C(=O)O` + NC1CC1c1ccc(-c2cccc(O)c2)cc1, the pIC50 is, setting by setting: under setting [1], greater than 8.50; under setting [2], greater than 8.50; under setting [3], greater than 8.50; under setting [4], greater than 8.50; under setting [5], greater than 8.50. Besides, the viability, T/C (second compound 0.1 µM, first compound 0.00316 µM) was 43.8%; the viability, T/C (second compound 0.1 µM, first compound 0.01 µM) was 48.9%; the viability, T/C under setting [6] is 43%; the viability, T/C under setting [7] was 40.8%; the viability, T/C under setting [8] was 32.4%; the viability, T/C under setting [9] is 21.9%. Moreover, the viability, T/C is, setting by setting: (second compound 0.316 µM, first compound 0.00316 µM) 40.7%; (second compound 0.316 µM, first compound 0.01 µM) 40%; under setting [12], 38.5%; under setting [13], 34.7%; under setting [14], 27.3%; under setting [15], 21.4%. For the same compound, the viability, T/C is 37.5% (second compound 1 µM, first compound 0.00316 µM); 39.9% (second compound 1 µM, first compound 0.01 µM); 38.3% under setting [18]; 38% under setting [19]; 25.1% under setting [20]; 18.6% under setting [21]. Moreover, the viability, T/C is 41.4% (second compound 3.16 µM, first compound 0.00316 µM); 41.4% (second compound 3.16 µM, first compound 0.01 µM); 41.1% under setting [24]; 35% under setting [25]; 28.1% under setting [26]; 18.9% under setting [27]. The viability, T/C by setting is: (second compound 10 µM, first compound 0.00316 µM) 30.7%; (second compound 10 µM, first compound 0.01 µM) 33%; under setting [30], 31.3%; under setting [31], 31.1%; under setting [32], 22.4%; under setting [33], 15.7%.
Take `COc1cc(Nc2ncc3c(n2)-c2ccc(Cl)cc2C(c2c(F)cccc2OC)=NC3)ccc1C(=O)O`: the viability, T/C is 78.5% and 52.8% (compound 0.00316 µM); 60.9% and 55.1% (compound 0.01 µM); 56.1% and 50.4% (compound 0.0316 µM); 57% and 42.6% (compound 0.1 µM); 50.3% and 38.8% (compound 0.316 µM); 41.5% and 23.2% (compound 1 µM). Further, the pIC50 (curve of compound) was 6.74 and 7.50.
